How the values were obtained:
[1] = system: β-adrenergic receptor signal pathway in brown adipocytes; test: Heat production capacity: Ucp1 mRNA after isoproterenol treatment of induced brown adipocytes; format: cell-based, human; settings: 6 hours treatment of cells induced with Example 3 (3 weeks SFBAM + 1 week SFBAMaM); compared with control treated with H2O; FIG. 9
Method: To quantify gene expression, total RNAs were extracted from fibroblasts treated with the respective compounds using FastGene (registered trademark) RNA basic kit (manufactured by Nippon Genetics Co., Ltd.). Fibroblasts were cultured in parallel using SFBAM as a control, and the total RNAs were extracted from the brown adipocytes induced with compounds and the control cells. After performing reverse-transcription with ReverTraAce (registered trademark) PCR RT Master Mix with gDNA Remover (manufactured by Toyobo Co., Ltd.), the real-time PCR analysis was performed by Power SYBR Green PCR Master Mix (Thermo Fisher Scientific). Three reactions were carried out per level under the following conditions: 40 cycles of reactions at 95° C. for 10 minutes, at 95° C. for 15 seconds, and at 60° C. for 60 seconds, in order. All results were normalized to the quantity of Tbp mRNA.
Regarding the cells, Ucp1 mRNA was quantified in the case after treatment with isoproterenol (β-adrenergic receptor agonist) for 6 hours and in the case after treatment with H2O, which is the solvent.

[2] = system: human fibroblasts; test: Direct conversion of human fibroblasts to brown adipocytes in serum-free medium SFBAM, efficiency judged comprehensively; format: cell-based; settings: conclusion from removal experiments
Method: The above human fibroblasts were seeded in 35 mm dishes coated with gelatin (Cat #: 190-15805, manufactured by FUJIFILM Wako Pure Chemical Co.) at 5×10^4, and cultured in DMEM medium (Cat #: 11965092; manufactured by Gibco) supplemented with 10% fetal bovine serum (FBS), 100 U/mL penicillin, 100 μg/mL streptomycin until 80% to 90% confluency at 37° C., 5% CO2.
Hereinafter, this is referred to as serum-free brown adipocyte-inducing medium “SFBAM”.
After the human fibroblasts reached 80% to 90% confluency, the dish medium was replaced with the above SFBAM and the human fibroblasts were cultured in SFBAM for 3 weeks. The medium was changed every 3 days.
The more the number of + marks, the higher the conversion efficiency. […] The mark − indicates no conversion to brown adipocytes.

Row | Structure (SMILES) | Ucp1 mRNA increase after treatment [1] | conversion efficiency attributed to the single compound [2]
1 | CC(C)NCC(O)c1ccc(O)c(O)c1 (stereo not drawn) [isoproterenol, Isoproterenol] | up to 3.1 fold | –
2 | C=C[C@@]1(C)CC(=O)[C@]2(O)[C@@]3(C)[C@@H](O)CCC(C)(C)[C@@H]3[C@H](O)[C@H](OC(C)=O)[C@@]2(C)O1 [forskolin, Forskolin] | – | followed by a high conversion efficiency
3 | CN(CCOc1ccc(CC2SC(=O)NC2=O)cc1)c1ccccn1 (stereo not drawn) [rosiglitazone, Rosiglitazone] | – | high conversion efficiency

Source: patent US20230059404A1, “Method for Producing Brown Adipocytes” (Kataoka Corporation, priority 2019, published 2023)
